Where no end group is shown, it is not given here.
Key:
[1] = tested on: ischemic-injured porcine jejunum; assay: Recovery of barrier function (transepithelial electrical resistance) in ischemic-injured porcine jejunum in Ussing chambers, with indomethacin; type: cell-based, Yorkshire-cross pigs; settings: FIG. 1
Description: In order to determine whether Larazotide could function as a therapeutic agent that could stimulate intestinal tissue repair in the presence of a non-steroidal anti-inflammatory drug (NSAID), recovery of barrier function in ischemic-injured porcine jejunum was monitored in the presence of the NSAID indomethacin.
Specifically, Yorkshire-cross pigs of 6-8 weeks of age were anesthetized, followed by midline laparotomy and creation of a series of 10 cm intestinal loops commencing proximal to the ileum by ligating the intestinal lumen.
The local mesenteric vasculature was ligated to select treatment loops for a period of 45 minutes. Other loops were left as non-ischemic controls. The loops were subsequently resected, and the mucosal tissues were stripped in oxygenated (95% O2/5 % CO2) rings from the muscle layers in preparation of ex vivo incubation in Ussing chambers.
Select tissues (n=8) were pre-treated with indomethacin (5 μM) on both sides of the tissue, prior to receiving 0.1-10 μM Larazotide on the luminal surface after 30 minutes of incubation in the Ussing chambers.
Transepithelial electrical resistance (TER) was monitored in the tissues for 240 minutes.

[2] = clinical trials, cited from earlier work
tight junction = assay: Tight junction regulator activity of larazotide fragments; settings: for Activity of full length larazotide when mixed with the two fragments: GVLVQPG and VLVQPG mixed with full length larazotide; for Activity as tight junction regulators: fragment alone

Molecule	Activity of full length larazotide when mixed with the two fragments (tight junction)	Activity as tight junction regulators (tight junction)	other results
COc1ccc2c(c1)c(CC(=O)O)c(C)n2C(=O)c1ccc(Cl)cc1 [indomethacin]			Transepithelial electrical resistance (TER) ([1]; indomethacin applied without larazotide): decline in TER
GGVLVQPG [Larazotide]			Transepithelial electrical resistance (TER) ([1]; 1 μM larazotide on luminal surface, in the presence of indomethacin (5 μM), monitored for 240 minutes): increased TER; Clinical activity at higher doses ([2]; higher doses (e.g., 1 mg and 2 mg doses)): attenuation of activity, or no activity at all; Clinical benefit on intestinal disease symptoms ([2]; lower doses (e.g., 0.5 mg dose)): benefit at reducing intestinal disease symptoms
GVLVQPG [larazotide-derived fragment missing an N-terminal glycine residue]	activity is completely abolished	largely inactive	
VLVQPG [larazotide-derived fragment missing N-terminal glycine residues]	activity is completely abolished	largely inactive	

Source: patent US20210100868A1, “COMPOSITIONS AND METHODS FOR TREATING OR PREVENTING GASTROINTESTINAL DAMAGE ASSOCIATED WITH NSAID THERAPY” (NORTH CAROLINA STATE UNIVERSITY, priority 2018, published 2021)
